Source: ChEMBL document CHEMBL3272104, “Inhibition of Lactobacillus casei thymidylate synthetase by 5-substituted 2'-deoxyuridylates. Preliminary quantitative structure-activity relationship” (J Med Chem, 1977)

What was measured:
[1] = molecular target: T1, Thymidylate synthase (Lactobacillus casei, UniProt P00469); test: Inhibition of amethopterin-resistant Lactobacillus casei thymidylate synthetase-catalyzed dTMP formation using dUMP as substrate by spectrophotometric analysis in presence of CH2-H4-folate; design: species or system Lacticaseibacillus casei; details: read-out: Ki(app)
T1 sequence (P00469 whole entry): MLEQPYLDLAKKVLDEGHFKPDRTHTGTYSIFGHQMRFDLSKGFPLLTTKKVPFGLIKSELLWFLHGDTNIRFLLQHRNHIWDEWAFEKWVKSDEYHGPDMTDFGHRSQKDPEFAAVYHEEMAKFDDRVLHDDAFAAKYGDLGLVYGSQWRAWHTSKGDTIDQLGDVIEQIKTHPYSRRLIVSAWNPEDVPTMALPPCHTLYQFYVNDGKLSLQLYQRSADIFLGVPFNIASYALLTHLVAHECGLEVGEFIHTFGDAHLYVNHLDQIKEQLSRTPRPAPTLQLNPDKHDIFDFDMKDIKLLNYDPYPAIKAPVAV

[2] = molecular target: T2, Thymidylate synthase (Lactobacillus casei) (UniProt P00469); test: Activity at amethopterin-resistant Lactobacillus casei thymidylate synthetase assessed as rate of dTMP formation by absorbance analysis in presence of CH2-H4-folate; details: Lacticaseibacillus casei
T2 sequence (whole entry): T1 sequence (P00469 whole entry)

[3] = molecular target: T1, Thymidylate synthase; test: Inhibition of amethopterin-resistant Lactobacillus casei thymidylate synthetase-catalyzed 5-BrdUMP dehalogenation by absorbance analysis in absence of CH2-H4-folate; design: species or system Lacticaseibacillus casei; details: read-out: Ki(app)
[4] = substrate: O=c1ccn([C@H]2C[C@H](O)[C@@H](COP(=O)(O)O)O2)c(=O)[nH]1; details: Lacticaseibacillus casei
Description: Activity at amethopterin-resistant Lactobacillus casei thymidylate synthetase by spectrophotometric analysis in presence of CH2-H4-folate

[5] = substrate: O=c1[nH]c(=O)n([C@H]2C[C@H](O)[C@@H](COP(=O)(O)O)O2)cc1Br; test: Activity at amethopterin-resistant Lactobacillus casei thymidylate synthetase by absorbance analysis; details: Lacticaseibacillus casei
[6] = substrate: O=c1[nH]c(=O)n([C@H]2C[C@H](O)[C@@H](COP(=O)(O)O)O2)cc1I; test: as above; details: Lacticaseibacillus casei

`O=c1[nH]c(=O)n([C@H]2C[C@H](O)[C@@H](COP(=O)(O)O)O2)cc1I` was tested, and the Ki [1] was 1600 nM and the Activity [2] was 2.5%.

Molecule `O=c1[nH]c(=O)n([C@H]2C[C@H](O)[C@@H](COP(=O)(O)O)O2)cc1C(F)(F)F` has a Ki [1] of 39 nM.

In the case of `O=c1[nH]c(=O)n([C@H]2C[C@H](O)[C@@H](COP(=O)(O)O)O2)cc1Br`, the Ki [1] is reported as 1400 nM and the Activity [2] is reported as 3%.

With `O=Cc1cn([C@H]2C[C@H](O)[C@@H](COP(=O)(O)O)O2)c(=O)[nH]c1=O` the Ki [1] was 17 nM.

With `Cc1cn([C@H]2C[C@H](O)[C@@H](COP(=O)(O)O)O2)c(=O)[nH]c1=O` [THYMIDINE MONOPHOSPHATE] the Ki [3] was 8.69 µM and the Ki [1] was 15500 nM.

Molecule `O=c1ccn([C@H]2C[C@H](O)[C@@H](COP(=O)(O)O)O2)c(=O)[nH]1` [DEOXYURIDINE MONOPHOSPHATE] has a Ki [3] of 2.26 µM.

In the case of `O=c1[nH]c(=O)n([C@H]2C[C@H](O)[C@@H](COP(=O)(O)O)O2)cc1Cl`, the Ki [3] is reported as 9.39 µM and the Ki [1] is reported as 190 nM.

B1: Thymidylate synthase (Lactobacillus casei), P00469 (protein)
chain: T1 sequence (P00469 whole entry)
Molecule B1 has a Km [4] of 5.2 µM, a Km [5] of 5.7 µM and a Km [6] of 1.44 µM.
